We go through one compound from patent US20160120915A1, “METHODS FOR MANIPULATING IMMUNE RESPONSES BY ALTERING MICROBIOTA” (NEW YORK UNIVERSITY, priority 2013, published 2016).

The subject of experiment [1] is terminal ileum. As to the kind of experiment: PAT: ileal expression by qPCR in 6-week mice. Conditions: 6-week male mice, 3 pulses, vs control, p<0.05. It is filed as in vivo, C57BL/6 mice. Background: Real-time PCR tracks product formation cycle by cycle.
The test system of experiment [2] is terminal ileum. As to the kind of experiment: PAT: ileal expression by qPCR in 6-week mice. Conditions: 6-week male mice, 3 pulses, vs control. It is filed as in vivo, C57BL/6 mice. The protocol:
Total RNA was extracted from mouse tissues using the RNeasy Mini Kit (Qiagen), according to the manufacturer's instructions. Total RNA was reverse transcribed to cDNA using the Verso™ cDNA Synthesis Kit (Thermo Scientific). To generate standards for expression analysis of each target gene, the cDNA region of interest was PCR-amplified and the PCR product was cloned into pGEM-T easy (Promega). qPCR was performed with LightCycler 480 SYBR Green I Master mix (Roche) and run in a LightCycler 480 system (Roche). Target mRNA was normalized to GAPDH mRNA as an internal control in each sample.
C57BL/6 mice were fed a standard diet after weaning, and exposed to 3 pulses of therapeutic dose antibiotics (Amoxicillin or Tylosin), or no antibiotics, via their drinking water, all before 6 weeks of age. Mice were sacrificed at 6 weeks of age.
The distal ileum (1 cm) without Peyer's Patches was collected from each mouse for RNA extraction and kept in RNAlater (Ambion) overnight at 4° C. Samples were stored at −80° C. until RNA extraction was performed.
Panel A: Mice were exposed to 3 pulses of antibiotics (Amoxicillin or Tylosin), or no antibiotics, via breast milk or drinking water at the indicated time points. Panel B: Male mice, including 5 Control, 4 Amoxicillin, and 6 Tylosin, were fed a normal diet. They were sacrificed at 6 weeks of age and the terminal[1 cm] ileum without Peyer's Patches [TI-] was collected.
Ileal expression of T-bet and IFN-γ [Th1], GATA3 and IL-4 [Th2], Foxp3, and TGFβ1 [Treg], and RORγt, IL-17A, and IL-17F [Th17] (Control n=5, Amoxicillin n=4, Tylosin n=6) was quantitated with qPCR and normalized by GAPDH expression. Expression of T-bet and IFNγ [Th1] (p<0.05) and IL-17A and IL-17F [Th17] […] Foxp3 and RORγt were lower in Tylosin than control. This example extends the earlier observation that continuous antibiotics affect ileal immune cell populations and effectors by showing that pulses are sufficient to produce similar effects.

Molecules are shown by their SMILES. Counter-ions that a name gives are not always drawn.

For the compound `CC[C@H]1OC(=O)C[C@@H](O)[C@H](C)[C@@H](O[C@@H]2O[C@H](C)[C@@H](O[C@H]3C[C@@](C)(O)[C@@H](O)[C@H](C)O3)[C@H](N(C)C)[C@H]2O)[C@@H](CC=O)C[C@@H](C)C(=O)/C=C/C(C)=C/[C@@H]1CO[C@@H]1O[C@H](C)[C@@H](O)[C@@H](OC)[C@H]1OC` [Tylosin, Tylosin tartrate], in the experiment on terminal ileum [1], the “ileal Relmβ expression” value is “significantly lower”. Moreover, in the experiment with terminal ileum [2], the “ileal expression of Foxp3” value is recorded as “lower” and the “ileal expression of RORγt” value is listed as “lower”. For the same compound, in the experiment on terminal ileum [2] (p<0.05), the “ileal expression of IFNγ [Th1]” value is recorded as “significantly lower”, the “ileal expression of IL-17A [Th17]” value was “significantly lower”, the “ileal expression of IL-17F [Th17]” value is listed as “significantly lower” and the “ileal expression of T-bet [Th1]” value is “significantly lower”.
